# Experimental data from patent US9789096B2, “Methods and compositions for selective and targeted cancer therapy” (Board of Regents of the University of Texas System, priority 2013, dated 2017).
# Test system: HBEC30KT
# Experiment: Cell viability (ATP, Cell Titer Glo, 4 days), HBEC30KT
# Format: cell-based, human
# Details: Homo sapiens, Tables 3 and 4; read-out: HBEC30KT IC50
row,SMILES,IC50
1,COc1ccc2nc(NC(=O)c3ccc(N)cc3)sc2c1 [SW001286],130 µM
2,O=C(Nc1nc2ccccc2s1)c1ccc(-c2ccccc2)cc1 [SW001811],348 µM
3,O=C(Nc1nc2ccccc2s1)c1ccc([N+](=O)[O-])cc1 [SW003992],1630 µM
4,O=C(Nc1nc2ccccc2s1)c1cccnc1 [SW006981],272 µM
5,O=C(c1ccccc1)c1ccc(NC(=O)c2sc3ccccc3c2Cl)cc1 [SW025780],51 µM
6,O=C(Nc1nc2c(s1)CCCC2)c1ccccc1Oc1ccccc1 [SW045964],321 µM

# Test system: H1155
# Experiment: Cell viability dose-response, H1155
# Format: cell-based
# Details: Homo sapiens, NCI-H1155; Tables 3 and 4; read-out: IC50 (uM) vs indicated non-small cell lung cancer cell line H1155
# Protocol: (§1) FIG. 6A. […] Cell viability is plotted vs. compound concentration. Compound was added to cells plated at 15% confluence in 96-well plates in RPMI-1640 media supplemented with 5% Fetal Bovine Serum and 2 mM L-Glutamine. After 4 days of incubation, ATP levels were measured using Cell Titer Glo (Promega). Data are presented as the average of 2 replicates ±SEM.
# (§2) Selectivity may be measured by the half maximal inhibitory concentration (IC50), which, as used herein, is a measure of the effectiveness of a compound in killing cells. This quantitative measure indicates how much of a particular compound is needed to kill a particular cell population by half (e.g., as indicated by the amount of ATP). […] The IC50 can be determined by constructing a dose-response curve. The lower the IC50, the higher the potency, and the greater the difference between IC50 values for different cell lines (e.g., sensitive lines vs. insensitive lines, and sensitive lines vs. normal lines) the greater the selectivity. […]
# (§3) With this information, we synthesized and tested a series of small molecules derived in conception from the oxalamide and chromone scaffold including N-acyl ureas, as shown in Tables 6-8. Each compound was tested in a 12-point dose-response study starting at 50 micromolar and decreasing in 3-fold increments to sub-nanomolar concentrations, in duplicate. Additionally, one or more additional cell line was tested in the same way.
row,SMILES,IC50
1,COc1ccc2nc(NC(=O)c3ccc(N)cc3)sc2c1 [SW001286],25 µM
2,O=C(Nc1nc2ccccc2s1)c1ccc(-c2ccccc2)cc1 [SW001811],125 µM
3,O=C(Nc1nc2ccccc2s1)c1ccc([N+](=O)[O-])cc1 [SW003992],2870 µM
4,O=C(Nc1nc2ccccc2s1)c1cccnc1 [SW006981],95 µM
5,O=C(c1ccccc1)c1ccc(NC(=O)c2sc3ccccc3c2Cl)cc1 [SW025780],33 µM
6,O=C(Nc1nc2c(s1)CCCC2)c1ccccc1Oc1ccccc1 [SW045964],389 µM

# Test system: H1395
# Experiment: Cell viability dose-response, H1395
# Format: cell-based
# Details: Homo sapiens, NCI-H1395; Tables 3 and 4; read-out: IC50 (uM) vs indicated non-small cell lung cancer cell line H1395
# Protocol: as §1, §2, §3
row,SMILES,IC50
1,COc1ccc2nc(NC(=O)c3ccc(N)cc3)sc2c1 [SW001286],35 µM
2,O=C(Nc1nc2ccccc2s1)c1ccc(-c2ccccc2)cc1 [SW001811],185 µM
3,O=C(Nc1nc2ccccc2s1)c1ccc([N+](=O)[O-])cc1 [SW003992],1580 µM
4,O=C(Nc1nc2ccccc2s1)c1cccnc1 [SW006981],51 µM
5,O=C(c1ccccc1)c1ccc(NC(=O)c2sc3ccccc3c2Cl)cc1 [SW025780],99 µM
6,O=C(Nc1nc2c(s1)CCCC2)c1ccccc1Oc1ccccc1 [SW045964],620 µM

# Test system: H1819
# Experiment: Cell viability dose-response, H1819
# Format: cell-based, human
# Details: Homo sapiens, NCI-H1819, Tables 3 and 4; read-out: IC50 (uM) vs indicated non-small cell lung cancer cell line H1819
# Outline: (§4)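 Viability read as total ATP (Cell Titer Glo) following 4 days' compound exposure, with IC50 derived from dose-response curves. Duplicate 12-point series, top concentration 50 micromolar with 3-fold steps, on cells seeded at 15% confluence in RPMI-1640, 5% FBS, 2 mM L-glutamine.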
row,SMILES,IC50
1,COc1ccc2nc(NC(=O)c3ccc(N)cc3)sc2c1 [SW001286],24 µM
2,O=C(Nc1nc2ccccc2s1)c1ccc(-c2ccccc2)cc1 [SW001811],59 µM
3,O=C(Nc1nc2ccccc2s1)c1ccc([N+](=O)[O-])cc1 [SW003992],358 µM
4,O=C(Nc1nc2ccccc2s1)c1cccnc1 [SW006981],50 µM
5,O=C(c1ccccc1)c1ccc(NC(=O)c2sc3ccccc3c2Cl)cc1 [SW025780],27 µM
6,O=C(Nc1nc2c(s1)CCCC2)c1ccccc1Oc1ccccc1 [SW045964],143 µM

# Test system: H1993
# Experiment: Cell viability dose-response, H1993
# Format: cell-based
# Details: Homo sapiens, NCI-H1993; Tables 3 and 4; read-out: IC50 (uM) vs indicated non-small cell lung cancer cell line H1993
# Protocol: as §1, §2, §3
row,SMILES,IC50
1,COc1ccc2nc(NC(=O)c3ccc(N)cc3)sc2c1 [SW001286],27 µM
2,O=C(Nc1nc2ccccc2s1)c1ccc(-c2ccccc2)cc1 [SW001811],85 µM
3,O=C(Nc1nc2ccccc2s1)c1ccc([N+](=O)[O-])cc1 [SW003992],524 µM
4,O=C(Nc1nc2ccccc2s1)c1cccnc1 [SW006981],21.5 µM
5,O=C(c1ccccc1)c1ccc(NC(=O)c2sc3ccccc3c2Cl)cc1 [SW025780],31 µM
6,O=C(Nc1nc2c(s1)CCCC2)c1ccccc1Oc1ccccc1 [SW045964],55.9 µM

# Test system: H2009
# Experiment: Cell viability dose-response, H2009
# Format: cell-based, human
# Details: Homo sapiens, NCI-H2009; Tables 3 and 4; read-out: IC50 (uM) vs indicated non-small cell lung cancer cell line H2009
# Outline: (§5)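 Read-out is total cellular ATP, measured with CellTiter-Glo after four days of compound treatment. Cells start at 15% confluence in RPMI-1640 containing 5% FBS and 2 mM L-glutamine. Each point averages two replicates (±SEM).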
row,SMILES,IC50
1,COc1ccc2nc(NC(=O)c3ccc(N)cc3)sc2c1 [SW001286],22 µM
2,O=C(Nc1nc2ccccc2s1)c1ccc(-c2ccccc2)cc1 [SW001811],125 µM
3,O=C(Nc1nc2ccccc2s1)c1cccnc1 [SW006981],325 µM
4,O=C(c1ccccc1)c1ccc(NC(=O)c2sc3ccccc3c2Cl)cc1 [SW025780],60 µM
5,O=C(Nc1nc2c(s1)CCCC2)c1ccccc1Oc1ccccc1 [SW045964],55 µM

# Test system: H2073
# Experiment: Cell viability dose-response, H2073
# Format: cell-based, human
# Details: Homo sapiens, NCI-H2073, Tables 3 and 4; read-out: IC50 (uM) vs indicated non-small cell lung cancer cell line H2073
# Outline: as §5
row,SMILES,IC50
1,COc1ccc2nc(NC(=O)c3ccc(N)cc3)sc2c1 [SW001286],0.3 µM
2,O=C(Nc1nc2ccccc2s1)c1ccc([N+](=O)[O-])cc1 [SW003992],0.65 µM
3,O=C(Nc1nc2ccccc2s1)c1cccnc1 [SW006981],12.5 µM
4,O=C(c1ccccc1)c1ccc(NC(=O)c2sc3ccccc3c2Cl)cc1 [SW025780],0.08 µM
5,O=C(Nc1nc2c(s1)CCCC2)c1ccccc1Oc1ccccc1 [SW045964],3.2 µM

# Test system: H2122
# Experiment: Cell viability dose-response, H2122
# Format: cell-based, human
# Details: Homo sapiens, NCI-H2122, Table 9, competitor; read-out: IC50 to H2122 cells
# Outline: as §4
row,SMILES,IC50
1,COc1ccc2nc(NC(=O)c3ccc(N)cc3)sc2c1 [SW001286],0.04 µM

# Same assay, conditions: Homo sapiens, NCI-H2122, Tables 3 and 4; read-out: IC50 (uM) vs indicated non-small cell lung cancer cell line H2122
row,SMILES,IC50
1,COc1ccc2nc(NC(=O)c3ccc(N)cc3)sc2c1 [SW001286],0.048 µM
2,O=C(Nc1nc2ccccc2s1)c1ccc(-c2ccccc2)cc1 [SW001811],0.7 µM
3,O=C(Nc1nc2ccccc2s1)c1ccc([N+](=O)[O-])cc1 [SW003992],0.14 µM
4,O=C(Nc1nc2ccccc2s1)c1cccnc1 [SW006981],0.26 µM
5,O=C(c1ccccc1)c1ccc(NC(=O)c2sc3ccccc3c2Cl)cc1 [SW025780],0.007 µM
6,O=C(Nc1nc2c(s1)CCCC2)c1ccccc1Oc1ccccc1 [SW045964],1 µM

# Test system: H460
# Experiment: Cell viability dose-response, H460
# Format: cell-based
# Details: Homo sapiens, NCI-H460; Tables 3 and 4; read-out: IC50 (uM) vs indicated non-small cell lung cancer cell line H460
# Protocol: as §1, §2, §3
row,SMILES,IC50
1,COc1ccc2nc(NC(=O)c3ccc(N)cc3)sc2c1 [SW001286],0.4 µM
2,O=C(Nc1nc2ccccc2s1)c1ccc(-c2ccccc2)cc1 [SW001811],450 µM
3,O=C(Nc1nc2ccccc2s1)c1cccnc1 [SW006981],180 µM
4,O=C(c1ccccc1)c1ccc(NC(=O)c2sc3ccccc3c2Cl)cc1 [SW025780],46 µM

# Test system: HCC366
# Experiment: Cell viability dose-response, HCC366
# Format: cell-based
# Details: Homo sapiens, Tables 3 and 4, read-out: IC50 (uM) vs indicated non-small cell lung cancer cell line HCC366
# Protocol: as §1, §2, §3
row,SMILES,IC50
1,COc1ccc2nc(NC(=O)c3ccc(N)cc3)sc2c1 [SW001286],35 µM
2,O=C(Nc1nc2ccccc2s1)c1ccc(-c2ccccc2)cc1 [SW001811],220 µM
3,O=C(Nc1nc2ccccc2s1)c1ccc([N+](=O)[O-])cc1 [SW003992],1040 µM
4,O=C(Nc1nc2ccccc2s1)c1cccnc1 [SW006981],85 µM
5,O=C(c1ccccc1)c1ccc(NC(=O)c2sc3ccccc3c2Cl)cc1 [SW025780],248 µM
6,O=C(Nc1nc2c(s1)CCCC2)c1ccccc1Oc1ccccc1 [SW045964],149 µM

# Test system: HCC4017
# Experiment: Cell viability dose-response, HCC4017
# Format: cell-based, human
# Details: Homo sapiens, HCC4017, Tables 3 and 4; read-out: IC50 (uM) vs indicated non-small cell lung cancer cell line HCC4017
# Protocol: as §1, §2, §3
row,SMILES,IC50
1,COc1ccc2nc(NC(=O)c3ccc(N)cc3)sc2c1 [SW001286],35 µM
2,O=C(Nc1nc2ccccc2s1)c1ccc(-c2ccccc2)cc1 [SW001811],120 µM
3,O=C(Nc1nc2ccccc2s1)c1ccc([N+](=O)[O-])cc1 [SW003992],1440 µM
4,O=C(Nc1nc2ccccc2s1)c1cccnc1 [SW006981],76 µM
5,O=C(c1ccccc1)c1ccc(NC(=O)c2sc3ccccc3c2Cl)cc1 [SW025780],56 µM
6,O=C(Nc1nc2c(s1)CCCC2)c1ccccc1Oc1ccccc1 [SW045964],407 µM

# Test system: HCC44
# Experiment: Cell viability dose-response, HCC44
# Format: cell-based, human
# Details: Homo sapiens, HCC44, Tables 3 and 4; read-out: IC50 (uM) vs indicated non-small cell lung cancer cell line HCC44
# Outline: as §5
row,SMILES,IC50
1,COc1ccc2nc(NC(=O)c3ccc(N)cc3)sc2c1 [SW001286],3 µM
2,O=C(Nc1nc2ccccc2s1)c1ccc(-c2ccccc2)cc1 [SW001811],165 µM
3,O=C(Nc1nc2ccccc2s1)c1ccc([N+](=O)[O-])cc1 [SW003992],3500 µM
4,O=C(Nc1nc2ccccc2s1)c1cccnc1 [SW006981],63.7 µM
5,O=C(c1ccccc1)c1ccc(NC(=O)c2sc3ccccc3c2Cl)cc1 [SW025780],64 µM
6,O=C(Nc1nc2c(s1)CCCC2)c1ccccc1Oc1ccccc1 [SW045964],489 µM

# Test system: HCC95
# Experiment: Cell viability dose-response, HCC95
# Format: cell-based
# Details: Homo sapiens, Tables 3 and 4, read-out: IC50 (uM) vs indicated non-small cell lung cancer cell line HCC95
# Protocol: as §1, §2, §3
row,SMILES,IC50
1,COc1ccc2nc(NC(=O)c3ccc(N)cc3)sc2c1 [SW001286],2 µM
2,O=C(Nc1nc2ccccc2s1)c1ccc(-c2ccccc2)cc1 [SW001811],58 µM
3,O=C(Nc1nc2ccccc2s1)c1ccc([N+](=O)[O-])cc1 [SW003992],2270 µM
4,O=C(Nc1nc2ccccc2s1)c1cccnc1 [SW006981],110 µM
5,O=C(c1ccccc1)c1ccc(NC(=O)c2sc3ccccc3c2Cl)cc1 [SW025780],7.7 µM
6,O=C(Nc1nc2c(s1)CCCC2)c1ccccc1Oc1ccccc1 [SW045964],140 µM
